≈ marks a conversion by molar mass, not a printed value.
Experiments:
Canis familiaris [1] = assay: Oral bioavailability in beagle dog at 5 mg/kg administered via gavage as microsuspension along with high fat meal; format: ADME, organism-based, Canis lupus familiaris; conditions: in vivo
[2] = Total plasma clearance in CD1 mouse at 1 mg/kg, iv; format: ADME, organism-based
[3] = Half life in mouse hepatocytes at 0.5 uM after 1 hr in presence of NADPH by LC-MS/MS analysis; format: ADME, cell-based, Hepatocyte
[4] = Tmax in MDR1 a/b knockout mouse at 5 mg/kg, po administered via gavage; format: ADME, organism-based; conditions: in vivo
[5] = Half life in mouse liver microsomes at 0.5 uM after 1 hr in presence of NADPH by LC-MS/MS analysis; format: ADME, microsome
Salmonella typhimurium [6] = assay: Mutagenicity in Salmonella typhimurium TA100 in absence of Aroclor 1254-induced rat liver S9 fraction at up to 1600 ug/plate; format: toxicity, organism-based; conditions: salmonella enterica subsp. enterica serovar typhimurium
in vitro [7] = conditions: rat, liver microsomes
Description: Half life in rat liver microsomes at 0.5 uM after 1 hr in presence of NADPH by LC-MS/MS analysis

Salmonella typhimurium [8] = assay: Mutagenicity in Salmonella typhimurium TA98 in presence of Aroclor 1254-induced rat liver S9 fraction at up to 1600 ug/plate; format: toxicity, organism-based; conditions: salmonella enterica subsp. enterica serovar typhimurium
in vitro [9] = conditions: human, liver microsomes
Description: Half life in human liver microsomes at 0.5 uM after 1 hr in presence of NADPH by LC-MS/MS analysis

[10] = Half life in dog hepatocytes at 0.5 uM after 1 hr in presence of NADPH by LC-MS/MS analysis; format: ADME, cell-based, Canis lupus familiaris, Hepatocyte
in vivo = conditions: Sprague-Dawley, rat, po, 5 mg/kg
[11] = Half life in dog liver microsomes at 0.5 uM after 1 hr in presence of NADPH by LC-MS/MS analysis; format: ADME, Canis lupus familiaris, microsome
physchem = conditions: aqueous
Description: Aqueous solubility of the compound

Gag-Pol polyprotein [12] = molecular target: Gag-Pol polyprotein (Human immunodeficiency virus type 1 group M subtype B (isolate HXB2)(HIV-1), UniProt P04585, V370A)
[13] = Cmax in cynomolgus monkey at 5 mg/kg, po administered via gavage; format: ADME, organism-based, Macaca fascicularis; design: dose 5 mg/kg, route oral; conditions: in vivo
[14] = Tmax in beagle dog at 5 mg/kg, po administered via gavage as microsuspension pre-treated with 6 ug/kg, im pentagastrin 15 to 30 mins before compound dosing; format: ADME, organism-based, Canis lupus familiaris; conditions: in vivo
[15] = Tmax in beagle dog at 5 mg/kg, po administered via gavage as microsuspension along with high fat meal; format: ADME, organism-based, Canis lupus familiaris; conditions: in vivo
[16] = system: Gag-Pol polyprotein (Human immunodeficiency virus type 1 group M subtype B (isolate HXB2)(HIV-1)), P04585 [V370A]; conditions: Human immunodeficiency virus 1
[17] = molecular target: Human immunodeficiency virus type 1 Gag protein (Human immunodeficiency virus 1, UniProt Q77YG1)
Description: Binding affinity to wild type HIV1 gag polyprotein containing viral like particle

[18] = Tmax in Sprague-Dawley rat at 5 mg/kg, po; format: ADME, organism-based; conditions: in vivo
[19] = AUC (0 to infinity) in Sprague-Dawley rat at 5 mg/kg, po treated with 10 mg/kg elacridar immediately after compound dosing; format: ADME, organism-based; design: dose 5 mg/kg, route oral, time infinity; conditions: in vivo, with elacridar 10 mg/kg
[20] = Bioavailability in Sprague-Dawley rat at 5 mg/kg, id; format: ADME, organism-based; conditions: in vivo
[21] = Cmax in Sprague-Dawley rat at 5 mg/kg, id; format: ADME, organism-based; design: dose 5 mg/kg; conditions: in vivo
[22] = Tmax in cynomolgus monkey at 5 mg/kg, po administered via gavage; format: ADME, organism-based, Macaca fascicularis; conditions: in vivo
[23] = Oral bioavailability in cynomolgus monkey at 5 mg/kg administered via gavage; format: ADME, organism-based, Macaca fascicularis; conditions: in vivo
[24] = Solubility of compound in fed state simulated intestinal fluid at pH 5; format: physicochemical
[25] = Cmax in beagle dog at 5 mg/kg, po administered via gavage as microsuspension pre-treated with 40 mg famotidine in capsule form 1 hr before compound dosing; format: ADME, organism-based, Canis lupus familiaris; design: dose 5 mg/kg, route oral; conditions: in vivo
Canis familiaris [26] = assay: AUC (0 to infinity) in beagle dog at 5 mg/kg, po administered via gavage as microsuspension along with high fat meal; format: ADME, organism-based, Canis lupus familiaris; design: dose 5 mg/kg, time infinity, route oral; conditions: in vivo
[27] = Tmax in Sprague-Dawley rat at 5 mg/kg, id; format: ADME, organism-based; conditions: in vivo
Gag-Pol polyprotein [28] = molecular target: Gag-Pol polyprotein (Human immunodeficiency virus type 1 group M subtype B (isolate HXB2)(HIV-1), UniProt P04585)
Description: Binding affinity to HIV1 gag polyprotein delta V370 mutant containing viral like particle

[29] = Tmax in beagle dog at 5 mg/kg, po administered via gavage as solution; format: ADME, organism-based, Canis lupus familiaris; conditions: in vivo
[30] = Tmax in CD1 mouse at 5 mg/kg, po administered via gavage; format: ADME, organism-based; conditions: in vivo
[31] = Half life in human hepatocytes at 0.5 uM after 1 hr in presence of NADPH by LC-MS/MS analysis; format: ADME, cell-based, Hepatocyte
[32] = Volume of distribution at steady state in CD1 mouse at 1 mg/kg, iv; format: ADME, organism-based; conditions: in vivo, read-out: Vdss

For `C=C(C)[C@@H]1CC[C@]2(NCCN3CCS(=O)(=O)CC3)CC[C@]3(C)[C@H](CC[C@@H]4[C@@]5(C)CC=C(c6ccc(C(=O)O)cc6)C(C)(C)[C@@H]5CC[C@]43C)[C@@H]12` [BMS-955176], the F (Canis familiaris [1]) was 67%, the clearance [2] was 1.1 mL/min/kg and the half-life at 0.5 µM [3] was over 2 h. The Tmax [4] was 3 h, the half-life at 0.5 µM [5] was over 2 h and the Activity (Salmonella typhimurium [6]) was “Non-Toxic”. The half-life at 1 h, 0.5 µM (in vitro [7]) was over 2 h, the Activity (Salmonella typhimurium [8]) was “Non-Toxic” and the half-life at 1 h, 0.5 µM (in vitro [9]) was over 2 h. It also gave a half-life at 0.5 µM [10] of over 2 h, an AUC(0-t) at 6 h (in vivo) of 4.13 µM·h and a half-life at 0.5 µM [11] of over 2 h. For the same compound, the solubility (physchem) was under 1 µg/mL, the Kd (Gag-Pol polyprotein [12]) was 6.5 nM and the Cmax [13] was 62 nM. The Tmax [14] was 10.5 h, the Tmax [15] was 10.5 h and the T1/2 [16] was 0.6 h. The Kd [17] was 3.2 nM, the Tmax [18] was 6 h and the AUC(0-inf) [19] was 47.4 µM·h. For the same compound, the bioavailability [20] was 36%, the Cmax [21] was 1700 nM and the Tmax [22] was 3.3 h. The bioavailability [23] was 4%, the solubility [24] was 1020 µg/mL (≈ 1480 µM) and the Cmax [25] was 4040 nM. The AUC (Canis familiaris [26]) was 643 µM·h, the Tmax [27] was 1 h and the Kd (Gag-Pol polyprotein [28]) was 33.6 nM. It also gave a Tmax [29] of 12.7 h, a Tmax [30] of 3 h and a half-life at 0.5 µM [31] of over 2 h. It also gave a Vd [32] of 0.82 L/kg.

— ChEMBL document CHEMBL4152347 (J Med Chem, 2018)
